The text below walks through data of patent US20170296456A1, “PRODUCTS AND METHODS FOR TREATING PERIORBITAL DYSCHROMIA” (The Procter & Gamble Company, priority 2016, published 2017).

In the test the test system is B16-F1 mouse melanoma cell line. As to the kind of experiment: B16 melanin synthesis inhibition assay. The format is cell-based. Conditions: B16-F1 cells, OD 410 nm. As to the method: In this example, a commercially available B16-F1 mouse melanoma cell line from American Tissue Culture Collection, Virginia, USA was employed in a conventional melanin synthesis inhibition assay. The cell culture medium used in the assay is 500 mL of Dulbecco's Modified Eagle's Medium (DMEM), 50 mL Fetal Bovine Serum (FBS), and 5 mL of penicillin-streptomycin liquid. B16-F1 cells that are cultured in this medium and grown to greater than 90% confluency will synthesize melanin. While not intending to be bound by any theory, it is hypothesized that the melanin synthesis is stimulated by the culture medium and/or stress induced by growth to a high confluency. […] Equipment used in the assay include a CO2 incubator, such as a Forma Series Model 3110 by Therma Scientific, Massachusetts, USA; a hemocytometer, such as a Bright Line model by Hauser Scientific, Pennsylvania, USA; and a UV-Visible Spectrum Plate Reader, such as a SpectraMax250 from Molecular Devices, California, USA. […] Day 3: The cells from the T-150 flask are trypsinized, and the concentration of cells is determined using the hemacytometer. […] Read the 96 well plate using the UV-Vis Plate Reader at 410 nm to optically measure the amount of melanin produced between wells that are treated with the fava bean extract and control wells that are not. […] The concentration of test agent needed to provide the IC 50 is recorded. […]

For `Oc1ccc(OC2CCCCO2)cc1` (centres unmarked) [Deoxyarbutin], the “Concentration Needed for IC 50” value came to 0.008 v/v. On to `O=c1cc(CO)occ1O` [Kojic Acid], for which the “Concentration Needed for IC 50” value was found to be 0.01 v/v.
